“Also recorded” adds a separate entry of the source. Bounds are passed on as bounds.

For data set [1], the target named is MK-801 binding site of the N-methyl-D-aspartate receptor (NMDAR). Briefly: NMDAR radioligand binding with [3H]MK-801, Method B. Further details: species or system Sprague Dawley rat. The conditions noted are these: MK-801 site, Method B, male Sprague Dawley rat cortex, 5.0 nM [3H]MK-801; read-out: NMDAR Ki ± SEM. As to the method:
Radioligand Binding—Method B. Affinity of the test compounds for NMDAR was determined in radioligand binding experiments with [^3H]MK-801 by WuXi AppTec (Hong Kong) Limited, under the conditions described in Table 13.

The target in data set [2] is T1, vesicular monoamine transporter 2 (VMAT2) (Homo sapiens, UniProt Q05940).
T1 construct: expressed in transfected cells
T1 sequence (Q05940 whole entry, species assumed): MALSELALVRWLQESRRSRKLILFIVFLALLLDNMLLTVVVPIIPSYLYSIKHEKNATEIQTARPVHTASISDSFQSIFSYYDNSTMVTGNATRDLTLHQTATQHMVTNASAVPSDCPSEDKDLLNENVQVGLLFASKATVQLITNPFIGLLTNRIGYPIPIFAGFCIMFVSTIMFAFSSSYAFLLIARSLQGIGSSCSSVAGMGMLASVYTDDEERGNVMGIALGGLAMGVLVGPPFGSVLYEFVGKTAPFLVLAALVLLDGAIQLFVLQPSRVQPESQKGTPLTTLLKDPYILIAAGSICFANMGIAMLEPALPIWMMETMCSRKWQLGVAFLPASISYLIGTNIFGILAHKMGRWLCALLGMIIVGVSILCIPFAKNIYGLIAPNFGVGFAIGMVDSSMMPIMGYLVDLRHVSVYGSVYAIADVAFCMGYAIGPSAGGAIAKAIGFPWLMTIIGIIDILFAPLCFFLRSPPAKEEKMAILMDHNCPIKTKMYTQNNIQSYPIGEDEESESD
Briefly: Fluorescent substrate uptake inhibition, VMAT2. The format is cell-based. The conditions noted are these: 10 μM, transfected cells.

Data set [3] concerns the target T2, serotonin transporter (SERT) (Homo sapiens, UniProt P31645).
T2 construct: expressed in transfected cells; host or cells: HEK293
Kind of data set: Fluorescent substrate uptake inhibition, SERT. It is filed as cell-based. The note with it: for inhibition at 10 µM: HEK293 cells expressing SERT.

The nature of data set [4]: RLM stability (Low Activity). The conditions noted are these: male, Sprague Dawley, rat, liver microsomes, pH 7.4, Condition 1 (Low Activity), 0.50 mg protein/mL. It is filed as in vitro ADME, Sprague Dawley rats. In outline: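 Pooled male Sprague Dawley rat liver microsomes (0.50 mg/mL) in PBS pH 7.4 with 1 mM MgCl2 and 1 mM NADPH; compound 1 μM, 1.0% solvent, 37° C. Six time points over 60 min, parent remaining by LC-MS/MS; kel, t1/2 and Clint from linear regression of ln(AUC) versus time.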

In data set [5] the target is T3, dopamine transporter (DAT) (Homo sapiens, UniProt Q01959).
T3 construct: expressed in transfected cells; host or cells: CHO (uptake)
T3 sequence (Q01959 whole entry, species assumed): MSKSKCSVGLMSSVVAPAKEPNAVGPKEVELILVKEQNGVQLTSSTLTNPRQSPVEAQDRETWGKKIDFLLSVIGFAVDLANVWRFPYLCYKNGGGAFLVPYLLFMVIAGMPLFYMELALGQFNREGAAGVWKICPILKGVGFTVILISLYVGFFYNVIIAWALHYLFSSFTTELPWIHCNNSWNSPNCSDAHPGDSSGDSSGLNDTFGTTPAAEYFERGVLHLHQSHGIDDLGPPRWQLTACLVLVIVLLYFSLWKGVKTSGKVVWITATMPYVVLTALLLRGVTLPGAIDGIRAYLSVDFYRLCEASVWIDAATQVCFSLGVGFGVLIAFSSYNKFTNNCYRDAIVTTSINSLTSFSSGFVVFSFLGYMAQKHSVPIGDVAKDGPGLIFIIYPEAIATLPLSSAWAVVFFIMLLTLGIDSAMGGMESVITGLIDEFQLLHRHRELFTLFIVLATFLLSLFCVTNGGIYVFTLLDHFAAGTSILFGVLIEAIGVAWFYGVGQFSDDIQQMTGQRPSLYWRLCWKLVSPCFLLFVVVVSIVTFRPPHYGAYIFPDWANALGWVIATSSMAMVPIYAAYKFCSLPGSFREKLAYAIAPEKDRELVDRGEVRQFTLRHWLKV
Kind of data set: Fluorescent substrate uptake inhibition, DAT. The format is cell-based. The note with it: for inhibition at 10 µM: CHO cells expressing DAT.

Data set [6] deals with monoamine transporters, MATs (SERT, NET, DAT, VMAT2). Briefly: Monoamine uptake inhibition, monoamine transporters collectively. It is filed as cell-based. The note with it: in words. As to the method: The ability of the compounds of the present invention to inhibit uptake of monoamines by the serotonin transporter (SERT), norepinephrine transporter (NET), dopamine transporter (DAT), and vesicular monoamine transporter 2 (VMAT2) (collectively monoamine transporters, MATs) was measured using fluorescent substrate uptake assays in transfected cells (Table 14). The binding affinities of select compounds were also determined in radioligand displacement assays at SERT, NET, and/or DAT (Table 14).
Uptake Inhibition. The ability of test compounds to block monoamine uptake by SERT, NET, DAT, and VMAT2 was determined using the Neurotransmitter Transporter Uptake Assay Kit manufactured by Molecular Devices (Cat #R8173). Briefly, stably transfected cells expressing the MAT of interest (HEK293 cells for SERT and NET; CHO cells for DAT) were grown and plated into 384-well plates at a concentration of 20,000 cells per well. Plates were then incubated for 16-20 h at 37° C. and 5% CO2. The medium was then aspirated and replaced with 25 μL of assay buffer (20 mM HEPES in HBSS, containing 0.1% BSA) containing the test compounds at the appropriate concentrations. Plates were then centrifuged at 300 rpm for 15 s and then incubated at 37° C. for 30 minutes. At this time, 25 μL of the proprietary fluorescent dye solution was added, the plates were incubated at 37° C. for 60 minutes, and then fluorescence was quantified on a plate reader (excitation wavelength=440 nm, emission wavelength=520 nm). The proprietary dye solution contains a mixture of 1) a fluorescent dye that mimics the endogenous substrates of MATs and is thereby actively transported to the intracellular compartment in the absence of an inhibitor and 2) a masking dye that inhibits the fluorescence of dye 1 in the extracellular compartment. Therefore, the overall fluorescence of the system increases as the fluorescent dye is transported into the cells.

Data set [7] can be described thus: MLM stability (Low Activity). The format is in vitro ADME, CD-1 mice. The note with it: male, CD-1, mouse, liver microsomes, pH 7.4, Condition 1 (Low Activity), 0.50 mg protein/mL. The gist of the method: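 Pooled male CD-1 mouse liver microsomes (0.50 mg/mL) with 1 μM compound and 1 mM NADPH in 100 mM PBS pH 7.4 with 1 mM MgCl2, 37 °C, six time points over 60 min. Parent remaining by LC-MS/MS; kel, t1/2 and Clint from linear regression of ln(AUC) versus time.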

Data set [8] deals with T4, norepinephrine transporter (NET) (Homo sapiens, UniProt P23975).
T4 construct: expressed in transfected cells; host or cells: HEK293
T4 sequence (P23975 whole entry, species assumed): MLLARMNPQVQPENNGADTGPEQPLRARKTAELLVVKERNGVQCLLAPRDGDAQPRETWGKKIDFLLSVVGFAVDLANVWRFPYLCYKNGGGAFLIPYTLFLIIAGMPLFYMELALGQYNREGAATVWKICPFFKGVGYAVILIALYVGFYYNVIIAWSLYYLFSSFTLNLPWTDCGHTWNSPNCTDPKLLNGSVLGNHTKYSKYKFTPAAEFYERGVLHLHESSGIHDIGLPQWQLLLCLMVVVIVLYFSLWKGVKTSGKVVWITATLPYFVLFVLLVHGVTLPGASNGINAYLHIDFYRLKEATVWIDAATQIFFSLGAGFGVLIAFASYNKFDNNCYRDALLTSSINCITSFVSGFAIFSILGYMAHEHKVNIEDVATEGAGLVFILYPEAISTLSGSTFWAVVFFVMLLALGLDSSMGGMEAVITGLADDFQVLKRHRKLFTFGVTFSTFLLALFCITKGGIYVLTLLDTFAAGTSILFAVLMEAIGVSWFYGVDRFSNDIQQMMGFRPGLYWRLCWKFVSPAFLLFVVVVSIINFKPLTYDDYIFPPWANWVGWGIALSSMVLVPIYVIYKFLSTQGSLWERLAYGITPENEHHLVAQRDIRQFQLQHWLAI
Kind of data set: Fluorescent substrate uptake inhibition, NET. The note with it: for inhibition at 10 µM: HEK293 cells expressing NET. It is filed as cell-based.

Data set [9] in a line: HLM stability (Low Activity, Alternative Method). The format is in vitro ADME. The note with it: both sexes, human, liver microsomes, pH 7.4, Condition 1 column, values marked *: Low Activity, 0.50 mg protein/mL. The gist of the method:
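Pooled male and female human liver microsomes (0.50 mg/mL) in 100 mM PBS pH 7.4 with 1 mM MgCl2 and 1 mM NADPH, compound 1 μM (1.0% solvent), 37° C with shaking, six time points over 60 min. Parent remaining measured by LC-MS/MS; kel, t1/2 and Clint from linear regression of ln(AUC) versus time.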

Another data set relates to CSDS-susceptible mice. Kind of data set: Behavioral tests after chronic social defeat stress (CSDS). It is filed as in vivo, C57BL/6 mice.
The next data set deals with T5, DAT (Homo sapiens, UniProt Q01959).
T5 construct: expressed in transfected cells; host or cells: CHO (uptake)
T5 sequence (Q01959 whole entry, species assumed): as the sequence (Q01959 whole entry, species assumed) above
Briefly: DAT radioligand binding with [3H]WIN35,428. As to the method: (§1) Radioligand Binding. Affinity of the test compounds for SERT, NET, and DAT was determined in radioligand binding experiments with [^3H]imipramine, [^3]nisoxetine, and [^3H]WIN35,428, respectively, by WuXi AppTec (Hong Kong) Limited, under the conditions described in Table 15.

The next data set deals with T6, SERT (Homo sapiens, UniProt P31645).
T6 construct: expressed in transfected cells; host or cells: HEK293
T6 sequence (P31645 whole entry, species assumed): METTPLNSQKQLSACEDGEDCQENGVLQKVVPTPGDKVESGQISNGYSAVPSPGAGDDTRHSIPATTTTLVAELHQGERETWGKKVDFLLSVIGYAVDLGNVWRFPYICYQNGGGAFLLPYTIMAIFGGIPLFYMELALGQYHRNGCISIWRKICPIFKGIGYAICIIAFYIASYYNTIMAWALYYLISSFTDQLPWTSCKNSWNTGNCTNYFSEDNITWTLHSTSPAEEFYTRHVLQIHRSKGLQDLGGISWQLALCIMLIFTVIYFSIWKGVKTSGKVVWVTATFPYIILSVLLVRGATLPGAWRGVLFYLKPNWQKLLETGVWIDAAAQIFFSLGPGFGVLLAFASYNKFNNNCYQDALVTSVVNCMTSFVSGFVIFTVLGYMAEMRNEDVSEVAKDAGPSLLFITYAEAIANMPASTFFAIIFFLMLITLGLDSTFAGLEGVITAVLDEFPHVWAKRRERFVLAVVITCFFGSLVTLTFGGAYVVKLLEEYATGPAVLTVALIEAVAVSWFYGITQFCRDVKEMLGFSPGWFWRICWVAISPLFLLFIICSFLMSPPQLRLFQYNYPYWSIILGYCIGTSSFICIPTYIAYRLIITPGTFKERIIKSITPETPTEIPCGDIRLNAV
Kind of data set: SERT radioligand binding with [3H]imipramine. As to the method: as §1

The next data set concerns the target T7, NET (Homo sapiens, UniProt P23975).
T7 construct: expressed in transfected cells; host or cells: HEK293
Kind of data set: NET radioligand binding with [3H]nisoxetine. Here is the method: as §1

The nature of data set [10]: HLM stability (High Activity). It is filed as in vitro ADME. The note with it: both sexes, human, liver microsomes, pH 7.4, Condition 2 (High Activity), 1.0 mg protein/mL. Here is the method:
(§2) HLM Stability (High Activity). Pooled HLM from adult male and female donors (XenoTech H0630) were used. Microsomal incubations were carried out in 96-well plates in 5 aliquots of 40 μL, each (one for each time point). Liver microsomal incubation medium consisted of PBS (100 mM, pH 7.4), MgCl2 (3.3 mM), NADPH (3 mM), glucose-6-phosphate (5.3 mM), and glucose-6-phosphate dehydrogenase (0.67 units/mL), with 1.0 mg of liver microsomal protein per mL. Control incubations were performed by replacing the NADPH-cofactor system with PBS. Test compounds (1 μM, final solvent concentration 1.6%) were incubated with microsomes at 37° C., shaking at 100 rpm. Incubations were performed in duplicate. Five time points over 60 minutes were analyzed. The reactions were stopped by adding 12 volumes of 90% acetonitrile-water to incubation aliquots, followed by protein sedimentation by centrifugation at 5500 rpm for 3 minutes. Supernatants were analyzed for parent compound remaining using a fit-for-purpose liquid chromatography-tandem mass spectrometry (LC-MS/MS) method, with authentic samples of each analyte used for identity confirmation.
(§3) Data Analysis. The elimination constant (kel), half-life (t1/2) and intrinsic clearance (Clint) were determined in a plot of […] versus time, using linear regression analysis.

Data set [11] can be described thus: MLM stability (High Activity). The conditions noted are these: male, BALB/c, mouse, liver microsomes, pH 7.4, Condition 2 (High Activity), 1.0 mg protein/mL. The format is in vitro ADME, BALB/c mice. As to the method: as §2, with “MLM” for “HLM”, “from” for “from adult”, “BALB/c mice” for “and female donors”, “M3000)” for “H0630)”, “μL” for “μL,”, “9” for “12”
as §3

For data set [12], the target named is MK-801 binding site of the N-methyl-D-aspartate receptor (NMDAR). Kind of data set: NMDAR radioligand binding with [3H]MK-801, Method A. Set-up: species or system Wistar rat. The note with it: for Ki: MK-801 site, Method A, Wistar rat brain (minus cerebellum), 5.0 nM [3H]MK-801, read-out: NMDAR Ki ± SEM. Here is the method:
Radioligand Binding—Method A. Affinity of the test compounds for NMDAR was determined in radioligand binding experiments with [^3H]MK-801 by Eurofins Panlabs, Inc., using methods adapted from the literature (Javitt et al. 1987; Reynolds et al. 1989) and under the conditions described in Table 12.

Where [13] appears, read: 14.4 mg/kg i.p. as hydrogen tartrate salts.

T2 sequence (P31645 whole entry, species assumed): as above
T7 sequence (P23975 whole entry, species assumed): as the sequence (P23975 whole entry, species assumed) above

Consider `CNC1(c2ccc(F)cc2)CCCCC1=O` (racemic) [Compound 18rac, 2-(4-fluorophenyl)-2-(methylamino)cyclohexan-1-one], for which the Ki in [1] was 4.5 µM. Moreover, the inhibition at 10 µM in data set [2] stood at 20.2%; in [3], 25.2%; in [5], 21.4%; in data set [8], 16%. Besides, the figures for the microsomal CLint at 1 μM in [4], in data set [7] and in data set [9] were 19.6 µL/min/mg, 13.7 µL/min/mg and < 9.6 µL/min/mg, respectively. For the same molecule, in [6], the “selectivity for NMDAR (over MATs)” value is reported as “greater selectivity for NMDAR”. Moreover, the half-life at 1 μM in data set [9] is > 2.42 h.

In the case of `CNC1(c2ccccc2I)CCCCC1=O` (racemic) [Compound 37rac, 2-(2-Iodophenyl)-2-(methylamino)cyclohexan-1-one], the “antidepressant-like activity in behavioral tests after CSDS (TST, FST, SPT)” value (“antidepressant-like activity” below) in the data set on CSDS-susceptible mice (10 mg/kg i.p., single dose) was “not effective”; in the data set with CSDS-susceptible mice (30 mg/kg i.p., single dose) it was “only partially effective”.

Consider `CNC1(c2ccccc2Cl)CCCCC1=O` (racemic) [racemic ketamine, reference compound], for which the “antidepressant-like activity” value in the data set on CSDS-susceptible mice (10 mg/kg i.p., single dose) is reported as “effective”.

Take `O=C1CCCC[C@]1(c1ccccc1)N1CCCCC1` [Compound 26R, (R)-2-phenyl-2-(piperidin-1-yl)cyclohexan-1-one]: the Ki in data set [1] was 3.7 µM; on DAT it was 70.4 µM; on SERT, 22.5 µM; at NET it was > 87.4 µM. In addition, the inhibition at 10 µM in data set [2] was -12.3%; in data set [3], 30.4%; in data set [5], 58%; in data set [8], 19.5%. Further, the IC50 in data set [3] was > 100 µM; in data set [5] it was 5 µM; in data set [8], 23.7 µM. The “inhibitory activity at DAT” value in [5] (in words) was “significant inhibitory activity at DAT”. Further, the half-life at 1 μM is 1.05 h in data set [10] and 0.177 h in data set [11]. Also, the microsomal CLint at 1 μM in [10] is 11 µL/min/mg; in data set [11], 65 µL/min/mg.

As to `O=C1CCCC[C@@]1(c1ccccc1)N1CCCCC1` [Compound 26S, (S)-2-phenyl-2-(piperidin-1-yl)cyclohexan-1-one], the Ki in [1] is 0.52 µM; on DAT, 79.5 µM; on SERT, 8.2 µM; at NET, > 87.4 µM. For the same molecule, the inhibition at 10 µM in [2] was determined as 22.9%; in data set [3], 43%; in data set [5], 33.7%; in data set [8], 16.1%. The IC50 in data set [3] came out at 44 µM; in [5], 16.4 µM; in [8], 8.9 µM. The half-life at 1 μM in data set [10] is 1.68 h; in data set [11], 0.205 h. Moreover, the intrinsic metabolic clearance (microsomal CLint) at 1 μM in data set [10] amounted to 7 µL/min/mg; in [11] it was 56 µL/min/mg.

On to `CN[C@@]1(c2ccccc2F)CCCCC1=O` [Compound 35R, (R)-2-(2-Fluorophenyl)-2-(methylamino)cyclohexan-1-one], for which the “antidepressant-like activity” value with CSDS-susceptible mice (setting [13]) is “induced antidepressant-like effects; also recorded: more robust and longer lasting”. For the same molecule, the Ki in data set [12] was found to be 3.91 ± 0.4 µM. The “NMDAR binding, comparison in words” value in [12] (vs 35S, 35rac, racemic ketamine and R-ketamine) was “weaker NMDAR binding”.

Regarding `CN[C@]1(c2ccccc2F)CCCCC1=O` [Compound 35S, (S)-2-(2-Fluorophenyl)-2-(methylamino)cyclohexan-1-one], in the data set with CSDS-susceptible mice (setting [13]), the “antidepressant-like activity” value is reported as “induced antidepressant-like effects”. Besides, the Ki in [12] came out at 0.79 ± 0.21 µM.

The record behind these values is patent publication US11344510B2, “Arylcyclohexylamine derivatives and their use in the treatment of psychiatric disorders” (Gilgamesh Pharmaceuticals, Inc., priority 2019, dated 2022).
